Experimental data as given in patent publication US12459918B2, “Isoquinolinone derivatives serving as rock protein kinase inhibitors and use thereof” (GUANGZHOU OCUSUN OPHTHALMIC BIOTECHNOLOGY CO., LTD., priority 2019, dated 2025).

Test system: New Zealand rabbits with normal intraocular pressure
Assay: Intraocular pressure reduction experiment in New Zealand rabbits with normal intraocular pressure
Format: in vivo
Conditions: for Intraocular pressure in the left eye: 20 mg/mL group, left eye (saline or solvent); for Intraocular pressure in the right eye: 20 mg/mL in right eye; for Reduction magnitude of intraocular pressure: 20 mg/mL, left minus right eye
Text: Experimental Example 2. Intraocular Pressure Reduction Experiment in New Zealand Rabbits with Normal Intraocular Pressure
Rabbits with normal intraocular pressure were adopted to screen intraocular pressure reduction actions of the potential compounds by eye-drop administration.
Male New Zealand rabbits, aged 97-127 days, weighted 2.65-3.5 kg, purchased from PizhouDongfang Breeding Co. Ltd.
The male New Zealand rabbits were randomly divided into 8 rabbits/per group using a computer-generated randomization method Animals in each group were eye-dropped with different test samples in the right eye, and normal saline or solvent in the left eye, and the volume of the administration was both 50 μL/eye. The intraocular pressure of the animals was measured before administration and in 1, 2, 4, 6, 8 and 10 hours after the administration, respectively.

SMILES: Cc1cn(COC(=O)c2ccccc2)c(=O)c2cccc(S(=O)(=O)N3CC[C@H](N)C3)c12 [Compound 64]
- Intraocular pressure in the left eye (1 hour after administration): 11.96 mmHg
- Intraocular pressure in the left eye (2 hours after administration): 9.79 mmHg
- Intraocular pressure in the left eye (4 hours after administration): 11.50 mmHg
- Intraocular pressure in the left eye (6 hours after administration): 11.54 mmHg
- Intraocular pressure in the left eye (8 hours after administration): 11.75 mmHg
- Intraocular pressure in the left eye (10 hours after administration): 11.88 mmHg
- Intraocular pressure in the left eye (before administration): 11.29 mmHg
- Intraocular pressure in the right eye (1 hour after administration): 11.54 mmHg
- Intraocular pressure in the right eye (2 hours after administration): 7.42 mmHg
- Intraocular pressure in the right eye (4 hours after administration): 7.13 mmHg
- Intraocular pressure in the right eye (6 hours after administration): 7.38 mmHg
- Intraocular pressure in the right eye (8 hours after administration): 7.63 mmHg
- Intraocular pressure in the right eye (10 hours after administration): 9.71 mmHg
- Intraocular pressure in the right eye (before administration): 12.04 mmHg
- Reduction magnitude of intraocular pressure (1 hour after administration): 0.42 mmHg
- Reduction magnitude of intraocular pressure (2 hours after administration): 2.37 mmHg
- Reduction magnitude of intraocular pressure (4 hours after administration): 4.37 mmHg
- Reduction magnitude of intraocular pressure (6 hours after administration): 4.16 mmHg
- Reduction magnitude of intraocular pressure (8 hours after administration): 4.12 mmHg
- Reduction magnitude of intraocular pressure (10 hours after administration): 2.17 mmHg
- Reduction magnitude of intraocular pressure (before administration): −0.75 mmHg
